Where “and” joins values, the source holds several entries; their conditions need not be identical. Equal values may be shown once.
Tests used:
GB8 virus in JM cells = test: Virus infection of JM cells with GB8 in the presence of test compounds: syncytia and P24 (Example II); conditions: Table II; for SYNCYTIA % / P24 %: % of control; for SYNCYTIA %: 2880 min; for P24 %: 5760 min
Protocol: Virus infection of JM cells was carried out in the presence of different concentrations of test compounds. JM cells (1×10^5) and 50-100 syncytial forming units of virus (GB8) were added to duplicate wells of a tissue culture plate containing 1 mL volumes of growth medium with or without drug. The plate was incubated for 2 days at 37° C. and then scored for the presence of syncytia. At the same time the cells were washed and the growth medium replaced. After a further two days incubation, the cell free supernatant fluids were harvested and assayed for levels of P24 viral core antigen using the Coulter™ HIV Antigen assay.

HIV-I (GB8) [1] = test: Pretreatment of JM cells and block of HIV-I (GB8) infection (Example IV); conditions: pretreated overnight at 20 μg/mL
Protocol: JM cells were pretreated overnight at 37° C. with different compounds at 20 μg/mL or left untreated. The cells were washed 3 times in RPMI medium and then infected with HIV-I (GB8) for 2 hours at room temperature. The cells were again washed 3 times in RPMI medium and resuspended in fresh medium prior to being distributed into duplicate wells and incubated at 37° C. After 2 days syncytia were scored and the cell free supernatant fluid harvested and assayed for P24 viral core antigen using the Coulter™ HIV antigen assay.

HIV-I, GB8 = test: Ability to prevent syncytia formation and expression of P24 viral core antigen using JM cells and GB8 virus strain (Example I); type: cell-based; conditions: for P24 % CONTROL: 4320 min; for SYNCYTIA: after 3 days
Protocol: The virus was first incubated with an oligomer for 15 minutes and then the cells were added. After 2 hours adsorption, the virus innoculum was removed and the cells were washed three times to remove traces of input virus. Antiviral activity was determined after 3 days incubation by plotting the mean number of syncytia found in quadruple cultures against log10 concentration of anionic polymer or of other test compounds. The potency of an oligomer was also measured by assaying viral core antigen (P24 test-Abbott) in the supernatant fluid. Heparin, dextran sulfate, rs CD4, ATZ and/or ddC data, when included in any of the following Tables, are provided as positive controls.

HIV strain RF = test: Ability to prevent virus-induced cell death using MT4 cells and strain RF (Example III); type: cell-based; conditions: MT4 cells, 7 days, MTT, 10080 min
Protocol: (§1) Various oligomers were dissolved in RPMI and were then assayed for anti-HIV activity by making doubling dilutions of the solutions across a 96 well microtitre plate. To each well were then added 5×10^4 cells and 100 TCID50 of virus and the plates incubated at 37° C. for 7 days. MTT was added to each well and the plates incubated for a further 2 hours. The blue formazan crystals were dissolved using acidic isopropanol, and the absorbance measured at 540 nm.

HIV-I (GB8) [2] = test: Effect of treating HIV-I (GB8)-infected cells (JM) 24 hours post-infection (Example V, Table VI); type: cell-based; conditions: for P24 % CONTROL: 8640 min
HIV-I (GB8) [3] = test: Effect of treating HIV-I (GB8)-infected cells (JM) 48 hours post-infection (Example V, Table VIII); type: cell-based; conditions: for P24 / P24 % CONTROL: day 6 p.i.
MT4 cells = test: Toxicity to MT4 cells (TD50, Table IV, MTT); type: cell-based; conditions: MT4 cells, 7 days, MTT
Protocol: as §1

HIV-I (RF) = test: Effect of treating HIV-I (RF)-infected cells (C8166) 24 hours post-infection (Example V, Table VII); conditions: for P24 % CONTROL: 8640 min
Protocol: Cells were infected with strain RF or GB8 for 24 hours at 37° C. at a multiplicity of infection of 0.001. Cells were washed three times to remove residual virus and then replated into fresh growth medium. Cells were then treated for 24 and 48 hours post-infection (p.i.) with the indicated concentrations of test compounds. Syncytia and P24 antigen levels were determined on the indicated days p.i. by methods described before.

HIV = conditions: cited from earlier work
influenza = conditions: cited from earlier work
[4] = 0.31 μM, addition 24 hours p.i.
[5] = 0.62 μM, addition 24 hours p.i.
[6] = 1.2 μM, addition 0 hours p.i., single wells
[7] = 1.25 μM, addition 24 hours p.i.

poly{imino[2,2'-disulfo(1,1'-biphenyl)-4,4'-diyl]iminocarbonyl}, alpha-{[(4-methylphenyl)amino]carbonyl}-omega[(4-methylphenyl)amino]- [Example 1A]
SYNCYTIA (2 DAYS) MEAN (GB8 virus in JM cells; 0.01 μg/mL): 60
SYNCYTIA % (GB8 virus in JM cells; 0.01 μg/mL): 143%
P24 (GB8 virus in JM cells; 0.03 μg/mL): 4.3 × 10^5 units/mL
SYNCYTIA (2 DAYS) MEAN (GB8 virus in JM cells; 0.03 μg/mL): 52
SYNCYTIA % (GB8 virus in JM cells; 0.03 μg/mL): 123%
P24 % (GB8 virus in JM cells; 0.03 μg/mL): 100%
P24 (GB8 virus in JM cells; 0.1 μg/mL): 4.0 × 10^5 units/mL
SYNCYTIA (2 DAYS) MEAN (GB8 virus in JM cells; 0.1 μg/mL): 25
SYNCYTIA % (GB8 virus in JM cells; 0.1 μg/mL): 58%
P24 % (GB8 virus in JM cells; 0.1 μg/mL): 100%
P24 (GB8 virus in JM cells; 0.3 μg/mL): 4.0 × 10^4 units/mL
SYNCYTIA (2 DAYS) MEAN (GB8 virus in JM cells; 0.3 μg/mL): 14
SYNCYTIA % (GB8 virus in JM cells; 0.3 μg/mL): 33%
P24 % (GB8 virus in JM cells; 0.3 μg/mL): 11%
P24 (GB8 virus in JM cells; 1 μg/mL): 9.1 × 10^3 units/mL
SYNCYTIA (2 DAYS) MEAN (GB8 virus in JM cells; 1 μg/mL): 0
SYNCYTIA % (GB8 virus in JM cells; 1 μg/mL): 0%
P24 % (GB8 virus in JM cells; 1 μg/mL): 3%
SYNCYTIA (2 DAYS) MEAN (GB8 virus in JM cells; 3 μg/mL): 0
SYNCYTIA % (GB8 virus in JM cells; 3 μg/mL): 0%
SYNCYTIA (2 DAYS) MEAN (GB8 virus in JM cells; 10 μg/mL): 0
SYNCYTIA % (GB8 virus in JM cells; 10 μg/mL): 0%
P24 (HIV-I (GB8) [1]): 2623 pg/mL
MEAN SYNCYTIA (HIV-I (GB8) [1]; 2 days): 14
P24 % (HIV-I (GB8) [1]; % of control, 2880 min): 9%
SYNCYTIA % (HIV-I (GB8) [1]; % of control, 2880 min): 12%
P24 (HIV-I, GB8; 0.6 μg/mL): 37355 pg/mL
P24 % CONTROL (HIV-I, GB8; 0.6 μg/mL): 0.13%
P24 (HIV-I, GB8; 1.25 μg/mL): 541 pg/mL
P24 % CONTROL (HIV-I, GB8; 1.25 μg/mL): < 0.1%
SYNCYTIA (HIV-I, GB8; 1.25 μg/mL): 0
P24 (HIV-I, GB8; 2.5 μg/mL): 96 pg/mL
P24 % CONTROL (HIV-I, GB8; 2.5 μg/mL): < 0.1%
SYNCYTIA (HIV-I, GB8; 2.5 μg/mL): 0
SYNCYTIA (HIV-I, GB8; 5.0 μg/mL): 0
ED50 (HIV strain RF): 1.6 µg/mL
P24 DAY 6 p.i. (HIV-I (GB8) [2]; [4]): 165000 pg/mL
SYNCYTIA/WELL DAY 3 p.i. (HIV-I (GB8) [2]; [4]): > 50 SYNCYTIA/WELL
P24 % CONTROL (HIV-I (GB8) [2]; [4]): 16.0%
P24 DAY 6 p.i. (HIV-I (GB8) [2]; [5]): 56000 pg/mL
SYNCYTIA/WELL DAY 3 p.i. (HIV-I (GB8) [2]; [5]): < 20 SYNCYTIA/WELL
P24 % CONTROL (HIV-I (GB8) [2]; [5]): 5.4%
P24 DAY 6 p.i. (HIV-I (GB8) [2]; 1.2 μM, addition 24 hours p.i.): 15000 pg/mL
SYNCYTIA/WELL DAY 3 p.i. (HIV-I (GB8) [2]; 1.2 μM, addition 24 hours p.i.): < 10 SYNCYTIA/WELL
P24 % CONTROL (HIV-I (GB8) [2]; 1.2 μM, addition 24 hours p.i.): 1.5%
P24 DAY 6 p.i. (HIV-I (GB8) [2]; 2.5 μM, addition 0 hours p.i.): 420 pg/mL
SYNCYTIA/WELL DAY 3 p.i. (HIV-I (GB8) [2]; 2.5 μM, addition 0 hours p.i.): 0 SYNCYTIA/WELL
P24 % CONTROL (HIV-I (GB8) [2]; 2.5 μM, addition 0 hours p.i.): 0.04%
P24 DAY 6 p.i. (HIV-I (GB8) [2]; 2.5 μM, addition 24 hours p.i.): 12100 pg/mL
SYNCYTIA/WELL DAY 3 p.i. (HIV-I (GB8) [2]; 2.5 μM, addition 24 hours p.i.): 0 SYNCYTIA/WELL
P24 % CONTROL (HIV-I (GB8) [2]; 2.5 μM, addition 24 hours p.i.): 1.2%
P24 (HIV-I (GB8) [3]; 1.2 μM, addition 0 hours p.i.): 450 pg/mL
P24 % CONTROL (HIV-I (GB8) [3]; 1.2 μM, addition 0 hours p.i.): 0.41%
SYNCYTIA/WELL DAY 3 p.i. (HIV-I (GB8) [3]; [6]): 0 SYNCYTIA/WELL
SYNCYTIA/WELL DAY 6 p.i. (HIV-I (GB8) [3]; [6]): 0 SYNCYTIA/WELL
P24 (HIV-I (GB8) [3]; 1.2 μM, addition 48 hours p.i.): 21000 pg/mL
P24 % CONTROL (HIV-I (GB8) [3]; 1.2 μM, addition 48 hours p.i.): 19.0%
SYNCYTIA/WELL DAY 3 p.i. (HIV-I (GB8) [3]; 1.2 μM, addition 48 hours p.i., single wells): 19 SYNCYTIA/WELL and 10 SYNCYTIA/WELL and 12 SYNCYTIA/WELL
effect on cells having preestablished infections (HIV-I (GB8) [3]; summary of studies): cleared cultures of syncytia, stabilized the infection and reduced virus antigen levels
TD50 (MT4 cells): > 100 µg/mL
P24 DAY 6 p.i. (HIV-I (RF); [5]): 700000 pg/mL
P24 % CONTROL (HIV-I (RF); [5]): 74%
P24 DAY 6 p.i. (HIV-I (RF); [7]): 1.5e+06 pg/mL
SYNCYTIA/WELL DAY 2 (HIV-I (RF); [7]): 0
P24 % CONTROL (HIV-I (RF); [7]): 100%
SYNCYTIA/WELL DAY 2 (HIV-I (RF); 2.5 μM, addition 24 hours p.i.): 0
SYNCYTIA/WELL DAY 3 (HIV-I (RF); 2.5 μM, addition 24 hours p.i.): 0
P24 % CONTROL (HIV-I (RF); 2.5 μM, addition 24 hours p.i.): 10.2%
P24 DAY 6 p.i. (HIV-I (RF); 5 μM, addition 24 hours p.i.): 9300 pg/mL
SYNCYTIA/WELL DAY 2 (HIV-I (RF); 5 μM, addition 24 hours p.i.): 0
SYNCYTIA/WELL DAY 3 (HIV-I (RF); 5 μM, addition 24 hours p.i.): 0
P24 % CONTROL (HIV-I (RF); 5 μM, addition 24 hours p.i.): 1.0%
P24 DAY 6 p.i. (HIV-I (RF); 10 μM, addition 0 hours p.i.): 16000 pg/mL
SYNCYTIA/WELL DAY 2 (HIV-I (RF); 10 μM, addition 0 hours p.i.): 0
SYNCYTIA/WELL DAY 3 (HIV-I (RF); 10 μM, addition 0 hours p.i.): 0
P24 % CONTROL (HIV-I (RF); 10 μM, addition 0 hours p.i.): 1.7%
P24 DAY 6 p.i. (HIV-I (RF); 10 μM, addition 24 hours p.i.): 9200 pg/mL
SYNCYTIA/WELL DAY 2 (HIV-I (RF); 10 μM, addition 24 hours p.i.): 0
SYNCYTIA/WELL DAY 3 (HIV-I (RF); 10 μM, addition 24 hours p.i.): 0
P24 % CONTROL (HIV-I (RF); 10 μM, addition 24 hours p.i.): 1.0%

CCC(O)[C@H](N)C(=O)O (stereo partly drawn) [β-hydroxy-norvaline]
expression of HIV glycoproteins and formation of syncytia (HIV): inhibit expression of HIV glycoproteins and block the formation of syncytia

O=CC[C@@H](O)[C@H](O)[C@H](O)CO [2-deoxy-D-glucose]
viral protein glycosylation (influenza): inhibited viral protein glycosylation
expression of HIV glycoproteins and formation of syncytia (HIV): inhibit expression of HIV glycoproteins and block the formation of syncytia

Reference: patent US5707615A, “Method of treating HIV infections with anti-viral formulations” (Merrell Pharmaceuticals Inc., priority 1997, dated 1998)
